Reference: US20020061836A1, “Methods for altering SXR activation using peptide mimetic HIV protease inhibitor SXR ligands” (priority 2000, published 2002)
Read-outs that look alike come from different tables or passages of the source.

Assays:
[1] = biological target: T1, human SXR ligand binding domain (Homo sapiens, UniProt O75469); assay: Gal-L-SXR (Gal-SXR) Gal4 reporter transient transfection assay in CV-1 cells
T1 sequence (O75469 107-434 limits assumed): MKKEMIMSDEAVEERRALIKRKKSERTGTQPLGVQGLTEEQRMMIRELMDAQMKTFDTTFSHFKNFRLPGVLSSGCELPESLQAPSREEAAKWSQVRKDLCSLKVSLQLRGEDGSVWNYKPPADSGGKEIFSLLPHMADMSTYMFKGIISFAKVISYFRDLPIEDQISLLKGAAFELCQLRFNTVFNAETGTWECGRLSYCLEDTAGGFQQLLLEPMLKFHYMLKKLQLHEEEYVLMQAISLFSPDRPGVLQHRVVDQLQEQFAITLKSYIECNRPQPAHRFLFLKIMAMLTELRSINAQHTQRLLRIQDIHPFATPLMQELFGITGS
From the text: Use of a standard model heterologous cell system to reconstitute SXR agonist and antagonist responsiveness allows SXR activity to be monitored in the absence of the metabolic events which may obscure the process being tested. Any suitable heterologous cell system may be used to test the activation of potential or known SXR nuclear receptor ligands, as long as the cells are capable of being transiently transfected with the appropriate DNA which expresses receptors, reporter genes, response elements, and the like. Cells which constitutively express one or more of the necessary genes may be used as well. Cell systems that are suitable for the transient expression of mammalian genes and which are amenable to maintenance in culture are well known to those skilled in the art. […] Suitable reporter gene constructs are well known to skilled workers in the fields of biochemistry and molecular biology. Activity of the reporter gene can be conveniently normalized to the internal control and the data plotted as fold activation relative to untreated cells.
The Gal4 reporter activity was normalized to the internal β-galactosidase control and the data plotted as fold activation relative to untreated cells. All transfections contained the Gal4 reporter and a β-galactosidase expression vector as an internal control.
(§1) Izbicka et al., Ann. Oncol.
(§2) Gal-PXR containing the ligand binding domain of mouse PXR (#AF031814) was obtained from Bruce Blumberg.
Transient Transffection Assays—CV-1 cells were grown and transfected as described.

[2] = biological target: mouse PXR (Mus musculus, UniProt O54915); conditions: 10 μM
Description: as §2
(§3) After 24 hour exposure to the compounds, total RNA was prepared and analyzed by northern analysis using probes for MRP2 and the GAPDH control. […] CV-1 cells were transiently transfected with a Gal4 reporter and a vector expressing Gal4-fused to the ligand binding domain of human SXR (Gal-SXR).
CV-1 cells were transiently transfected with Gal-SXR as in FIG. 21 above. […] Fold activation was determined relative to untreated cells. […] CV-1 cells were transiently transfected with Gal-PXR as in FIG. 21 above. […] FIG. 26: Coactivator recruitment by various HIV protease inhibitors SXR. […] Specific binding was measured as described in the Materials and Methods. Error bars indicate the range of duplicate data points.

[3] = test system: CYP2C8 mRNA; conditions: primary human hepatocytes; 10 μM (LG268 100 nM); 48 hours
Description: Northern analysis was performed as follows. Primary human hepatocytes were obtained from Clonetics (Walkersville, Md.) and maintained in Hepatocyte Maintenance Medium supplemented with dexamethasone and insulin according to the vendors instructions. Cells were treated with the indicated SXR agonists for 48 hours and total RNA was isolated using the Trizol reagent.
(§4) Northern Blot Analysis—Primary human hepatocytes were obtained from Clonetics (Walkersville, Md.) and cultured according to the vendors instructions. Cells were treated with the indicated compounds for 24 hours and total RNA was isolated using the Trizol reagent.
(§5) After 24 hour exposure to the compounds, total RNA was prepared and analyzed by northern analysis using probes for MDR1 and the GAPDH control.

[4] = test system: MRP2 mRNA; assay: Northern analysis of MRP2 expression in primary human hepatocytes; format: cell-based; conditions: primary human hepatocytes; 2.5 μM hyperforin, 10 μM rifampicin, 10 μM SR12813; 24 hour
Description: as §4, §3, §5

[5] = test system: MDR1 mRNA; assay: Northern analysis of MDR1 expression in human LS180 cells; format: cell-based; conditions: 10 μM, 24 hours
Description: as §1, §4, §5

[6] = test system: LS180 human colon cancer cells; assay: [14C]-paclitaxel efflux from pretreated LS180 cells; format: cell-based; conditions: LS180 cells induced 48 hours with 10 μM paclitaxel, 10 μM docetaxel or 100 nM LG268
Description: Taxane-induced drug efflux was measured using pretreated LS180 human colon cancer cells. The rate of drug efflux was measured. […] Individual data points are the means of triplicate determinations, error bars represent standard deviation and the lines are lines of regression. The slope of each line (rate of efflux) was compared to the slope obtained in the control (untreated) cells using an analysis of covariance. […] The entire experiment was performed three times with similar results. […] The cells were then incubated in media supplemented with 10 μM [^14C]-paclitaxel (4.9 μCi/umol, Moravek Biochemicals, Brea, Calif.) for 15 minutes. The uptake of ^14C-paclitaxel reached maximum levels at 10-12 minutes (data not shown). After 15 minutes, the cells were then rapidly centrifuged through silicone oil to remove all traces of extracellular radioactivity, resuspended in fresh media, and cell counts determined. At multiple time points over the next 10 minutes, triplicate aliquots of the cell suspension (approx. 1×10^5 cells/aliquot) were again centrifuged through silicon oil and the radioactivity in the cell pellet measured by quench-corrected liquid scintillation counting. The rate of [^14C]-paclitaxel efflux was determined as the slope of the [^14C]-paclitaxel versus time plots using all data. The slope for each inducer was compared to the slope obtained in the control (untreated) cells using an analysis of covariance.

[7] = biological target: SXR interaction with nuclear corepressor SMRT (Homo sapiens, UniProt O75469); assay: Mammalian two-hybrid SXR-corepressor interaction assay; format: cell-based; conditions: CV-1 cells; 10 μM
[8] = biological target: SXR coactivator interaction (SRC1, ACTR, GRIP, PBP) (Homo sapiens, UniProt O75469); conditions: CV-1 cells; 10 μM docetaxel
[9] = test system: CV-1 cells; assay: Potential cytotoxic effects at the concentrations and treatment times used; conditions: at the indicated concentrations and treatment times
[10] = biological target: T2, mouse CARβ (Mus musculus, UniProt O35627); assay: Nuclear receptor specificity transfection assay / LXRE×3-TK-luc reporter with CARβ in CV-1 cells; format: cell-based; conditions: LXRE×3-TK-luc reporter; 5 μM androstanol or 50 nM ET-743
T2 sequence (O35627 1-358): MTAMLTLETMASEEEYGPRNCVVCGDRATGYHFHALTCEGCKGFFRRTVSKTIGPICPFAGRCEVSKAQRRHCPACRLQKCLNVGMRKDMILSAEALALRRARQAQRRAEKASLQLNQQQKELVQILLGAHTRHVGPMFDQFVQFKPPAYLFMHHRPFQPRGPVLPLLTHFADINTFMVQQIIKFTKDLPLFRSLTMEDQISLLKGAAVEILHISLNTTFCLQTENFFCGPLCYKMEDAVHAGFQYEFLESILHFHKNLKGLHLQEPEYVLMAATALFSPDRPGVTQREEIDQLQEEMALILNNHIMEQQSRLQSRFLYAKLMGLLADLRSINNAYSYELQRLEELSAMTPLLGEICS

[11] = test system: CV-1 cells
[12] = test system: cancer cell-lines and human xenografts; conditions: variety of cancer cell-lines and human xenografts; read-out: IC50s for inhibition of proliferation; cited from earlier work

Sequence of mouse PXR (O54915 143-430 limits assumed): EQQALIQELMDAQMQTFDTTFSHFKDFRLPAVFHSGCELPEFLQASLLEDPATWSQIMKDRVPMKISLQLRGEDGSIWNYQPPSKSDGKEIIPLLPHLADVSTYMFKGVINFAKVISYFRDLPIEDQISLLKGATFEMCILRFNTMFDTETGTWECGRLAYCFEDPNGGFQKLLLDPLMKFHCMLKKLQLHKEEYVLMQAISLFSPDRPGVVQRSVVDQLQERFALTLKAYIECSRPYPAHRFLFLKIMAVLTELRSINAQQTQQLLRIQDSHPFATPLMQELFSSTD

CC(=O)[C@H]1[C@H](C#N)C[C@H]2[C@@H]3CC=C4C[C@@H](O)CC[C@]4(C)[C@H]3CC[C@@]21C
activation of Gal-SXR ([1]; CV-1 cells, 2.5 μM hyperforin, 10 μM rifampicin, 3 μM ritonavir, 10 μM PCN): not | activation of Gal-L-SXR chimeric receptor ([1]; CV-1 cells, 10 μM compound (LG268 100 nM), about 24 h): not | fold activation by cognate ligand (positive control) [2]: 23 fold

CCOP(=O)(OCC)C(=Cc1cc(C(C)(C)C)c(O)c(C(C)(C)C)c1)P(=O)(OCC)OCC [SR12813]
CYP2C8 mRNA expression [3]: less than that seen with other SXR agonists | MRP2 mRNA expression [4]: induced expression

CC(=O)O[C@@]12CO[C@@H]1C[C@H](O)[C@@]1(C)C(=O)[C@H](O)C3=C(C)[C@@H](OC(=O)[C@H](O)[C@@H](NC(=O)OC(C)(C)C)c4ccccc4)C[C@@](O)([C@@H](OC(=O)c4ccccc4)[C@H]21)C3(C)C [docetaxel]
activation of Gal-L-SXR [1]: did not effectively activate | MDR1 mRNA expression [5]: did not induce | rate of [14C]-paclitaxel efflux versus untreated cells [6]: did not differ from controls | effect on SXR-SMRT interaction [7]: little effect | coactivator recruitment effect, less than that seen with paclitaxel [8]: 25-40% | potential cytotoxic effects [9]: minimal

COc1cc2c(cc1O)CCN[C@]21CS[C@@H]2c3c(OC(C)=O)c(C)c4c(c3[C@H](COC1=O)N1[C@@H]2[C@H]2c3c(cc(C)c(OC)c3O)C[C@@H]([C@@H]1O)N2C)OCO4 [ET-743, ecteinascidin-743]
inhibition of SR12813- and paclitaxel-induced activation of Gal-L-SXR ([1]; 50 nM ET-743, 10 μM SR12813 or 10 μM paclitaxel): extremely potent and effective inhibitor | concentrations of maximal inhibition of SXR ([1]; wild-type SXR and Gal-L-SXR, 10 μM SR12813): 25 to 50 nM | effect on transcriptional activity of CARβ [10]: no effect | potential cytotoxic effects [11]: minimal | IC50 [12]: 1 to 100 nM
